Laboratory results: patent US10947226B2, “Bicyclic pyridone lactams and methods of use thereof” (Genentech, Inc., priority 2016, dated 2021)

target: human RIP1 kinase domain (2-375) (Homo sapiens (Human), UniProt Q13546); assay: RIP1 kinase inhibition assay (biochemical, Transcreener ADP fluorescence polarization); details: Ki app (Morrison tight-binding fit); 50 nM enzyme, 50 μM ATP, 2 hours incubation, pH 7.5
Procedure: RIP1 Kinase Inhibition Assays (Biochemical Assay)
The compounds of the present invention were tested for their capacity to inhibit RIP1K activity as described below.
Enzyme assay: The ability of the receptor interacting protein kinase (RIPK1) to catalyze the hydrolysis of adenosine-5′-triphosphate (ATP) is monitored using the Transcreener ADP (adenosine-5′-diphosphate) assay (BellBrook Labs). Purified human RIP1 kinase domain (2-375) (50 nM) derived from a baculovirus-infected insect cell expression system is incubated with test compounds for 2 hours in 50 mM Hepes buffer (pH 7.5) containing 30 mM MgCl2, 1 mM dithiothreitol, 50 μM ATP, 0.002% Brij-35, and 0.5% dimethyl sulfoxide (DMSO). Reactions are quenched by the addition of 1× Bell Brooks Stop buffer B (20 mM Hepes (ph 7.5), 40 mM ethylenediaminetetraacetic acid and 0.02% Brij-35) containing an additional 12 mM EDTA and 55 μg/mL ADP2 antibody and 4 nM ADP-AlexaFluor® 633 tracer. The tracer bound to the antibody is displaced by the ADP generated during the RIP1K reaction, which causes a decrease in fluorescence polarization that is measured by laser excitation at 633 nm with a FP microplate reader M1000. Fractional activity was plotted against test article concentration. Using Genedata Screener software (Genedata; Basel, Switzerland), the data were fit to the tight-binding apparent inhibition constant (Ki^app) Morrison equation [Williams, J. W. and Morrison, J. F. (1979) The kinetics of reversible tight-binding inhibition. Methods Enzymol 63: 437-67]. The following equation was used to calculate fractional activity and Ki^app: […]
where [E]T and [I]T are the total concentrations of active enzyme and test article, respectively. […]

Chain of human RIP1 kinase domain (2-375) (Q13546 2-375): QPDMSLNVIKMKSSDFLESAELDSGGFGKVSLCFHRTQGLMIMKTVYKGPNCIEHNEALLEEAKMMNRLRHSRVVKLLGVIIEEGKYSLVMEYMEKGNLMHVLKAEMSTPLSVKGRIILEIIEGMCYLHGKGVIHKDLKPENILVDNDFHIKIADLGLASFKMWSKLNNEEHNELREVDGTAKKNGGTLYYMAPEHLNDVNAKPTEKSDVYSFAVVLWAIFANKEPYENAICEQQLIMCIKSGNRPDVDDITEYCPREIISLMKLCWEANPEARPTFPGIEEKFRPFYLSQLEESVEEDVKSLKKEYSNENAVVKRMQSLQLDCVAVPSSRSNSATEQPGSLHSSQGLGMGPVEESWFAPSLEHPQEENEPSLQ

Row | Ki | SMILES
1 | 233 nM | CN1C(=O)[C@@H](NC(=O)c2ncn(Cc3ccccc3)n2)CCc2c1ccc(=O)n2C (single isomer, unassigned) [Example 1]
2 | 156 nM | CN1C(=O)[C@@H](NC(=O)c2ncn(Cc3ccccc3F)n2)CCc2c1ccc(=O)n2C (single isomer, unassigned) [Example 2]
3 | 489 nM | CN1C(=O)[C@@H](NC(=O)c2ncn(Cc3ccccc3)n2)CCn2c1cccc2=O (single isomer, unassigned) [Example 3]
4 | 290 nM | CN1C(=O)[C@@H](NC(=O)c2ncn(Cc3ccccc3F)n2)CCn2c1cccc2=O (single isomer, unassigned) [Example 4]
5 | 79 nM | CN1C(=O)[C@@H](NC(=O)c2ncn(Cc3ccccc3)n2)CCc2cn(C)c(=O)cc21 (single isomer, unassigned) [Example 5]
6 | 49 nM | CN1C(=O)[C@@H](NC(=O)c2ncn(Cc3ccccc3F)n2)CCc2cn(C)c(=O)cc21 (single isomer, unassigned) [Example 6]
7 | 173 nM | CN1C(=O)[C@@H](NC(=O)c2ncn(Cc3ccccc3)n2)CCc2cc(=O)n(C)cc21 (single isomer, unassigned) [Example 7]
8 | > 10000 nM | CN1C(=O)[C@H](NC(=O)c2ncn(Cc3ccccc3)n2)CCc2cc(=O)n(C)cc21 (single isomer, unassigned) [Example 8]
9 | 111 nM | CN1C(=O)[C@@H](NC(=O)c2ncn(Cc3ccccc3F)n2)CCc2cc(=O)n(C)cc21 (single isomer, unassigned) [Example 9]
10 | > 10000 nM | CN1C(=O)[C@H](NC(=O)c2ncn(Cc3ccccc3F)n2)CCc2cc(=O)n(C)cc21 (single isomer, unassigned) [Example 10]
11 | 231 nM | CN1C(=O)[C@@H](NC(=O)c2nc3n(n2)[C@H](c2ccccc2F)CC3)CCc2cc(=O)n(C)cc21 (single isomer, unassigned) [Example 11]
12 | > 10000 nM | CN1C(=O)[C@H](NC(=O)c2nc3n(n2)[C@H](c2ccccc2F)CC3)CCc2cc(=O)n(C)cc21 (single isomer, unassigned) [Example 12]
13 | 56 nM | CN1C(=O)[C@@H](NC(=O)c2nc3n(n2)[C@H](c2ccccc2F)CC3)CCc2cn(CC3CC3)c(=O)cc21 (single isomer, unassigned) [Example 14]
14 | 39 nM | CN1C(=O)[C@@H](NC(=O)c2ncn(Cc3ccccc3F)n2)CCc2cn(CC3CC3)c(=O)cc21 (single isomer, unassigned) [Example 15]
15 | 6900 nM | CN1C(=O)[C@H](NC(=O)c2nc3n(n2)[C@H](c2ccccc2F)CC3)CCc2cn(CC3CC3)c(=O)cc21 (single isomer, unassigned) [Example 16]
16 | 6900 nM | CN1C(=O)[C@H](NC(=O)c2ncn(Cc3ccccc3F)n2)CCc2cn(CC3CC3)c(=O)cc21 (single isomer, unassigned) [Example 17]
17 | 110 nM | CCn1cc2c(cc1=O)N(C)C(=O)[C@@H](NC(=O)c1nc3n(n1)[C@H](c1ccccc1F)CC3)CC2 (single isomer, unassigned) [Example 18]
18 | 110 nM | CCn1cc2c(cc1=O)N(C)C(=O)[C@@H](NC(=O)c1ncn(Cc3ccccc3F)n1)CC2 (single isomer, unassigned) [Example 19]
19 | > 10000 nM | CCn1cc2c(cc1=O)N(C)C(=O)[C@H](NC(=O)c1nc3n(n1)[C@H](c1ccccc1F)CC3)CC2 (single isomer, unassigned) [Example 20]
20 | > 10000 nM | CCn1cc2c(cc1=O)N(C)C(=O)[C@H](NC(=O)c1ncn(Cc3ccccc3F)n1)CC2 (single isomer, unassigned) [Example 21]
21 | > 10000 nM | CN1C(=O)[C@H](NC(=O)c2ncn(Cc3ccccc3F)n2)CCc2c1ccc(=O)n2C (single isomer, unassigned) [Example 22]
22 | > 10000 nM | CN1C(=O)[C@H](NC(=O)c2ncn(Cc3ccccc3)n2)CCc2c1ccc(=O)n2C (single isomer, unassigned) [Example 23]
23 | 81.1 nM | CN1C(=O)[C@@H](NC(=O)c2nc3n(n2)[C@H](c2ccccc2F)CC3)CCc2cn(C)c(=O)cc21 [Example 13, (5S)-5-(2-fluorophenyl)-N-[(3S)-1,7-dimethyl-2,8-dioxo-4,5-dihydro-3H-pyrido[4,3-b]azepin-3-yl]-6,7-dihydro-5H-pyrrolo[1,2-b][1,2,4]triazole-2-carboxamide]
